What was measured:
INCL fibroblasts [1] = experiment: Depletion of [35S]cysteine-labeled lipid thioesters in INCL fibroblasts; format: cell-based, human; settings: treatment for 24 and 48 hours vs untreated control cells (FIG. 7)
Experimental: (§1) Thus, this derivative was chosen for more extensive study of its ability to hydrolyze […] proteins, and to deplete lipid-extractable [^35S]cysteine thioesters from fibroblasts and lymphoblasts. INCL fibroblasts were obtained and cultured as described in Example 4. The cells were then labeled with [^35S]cysteine. Briefly, following incubation for six hours in medium lacking serum and cysteine/cystine, the cells were washed and then re-cultured for varying lengths of time in medium containing NtBuHA, with a change of medium every 12 hours. As controls, [^35S]cysteine-labeled cells were cultured in drug-free medium as well as medium containing 1M HA. Following incubation, cells were washed twice with cold PBS and then centrifuged at 2,250 g at 4° C. for 5 minutes. Lipid thioesters were then extracted from the cells and subject to analysis by high-performance thin layer chromatography. Briefly, the extracted fatty acyl esters were dissolved in chloroform:methanol (1:1) and an aliquot applied to a TLC plate and resolved using a mixture of chloroform:methanol:water (65:25:4). The plates were then dried and autoradiographs obtained.

INCL lymphoblasts [2] = experiment: H2O2-induced apoptosis in INCL lymphoblasts (annexin V, FACS); format: cell-based, human; settings: 1 mM NtBuHA 12 hours
Experimental: To evaluate whether NtBuHA protects against oxidative stress-induced apoptosis in INCL lymphoblasts the cells were treated with 1 mM NtBuHA for 12 hours and then incubated with 500 μM H2O2 for 3 hours in presence or absence of NtBuHA (1 mM). Untreated INCL lymphoblasts were also treated with H2O2 for 3 hours. For the detection of apoptosis the cells were stained with annexin V using Apoptosis detection kit (Biovision) and analyzed by FACS (Guava EasyCyte Mini System, Millipore).
Moreover, in these cells antisense-mediated inhibition of PPT1 leads to increased apoptosis. […] In addition, increased neuronal apoptosis in the brain of PPT1-KO mice has also been reported. […] Thus, the inventors sought to determine whether the NtBuHA-treatment protects cultured immortalized INCL lymphoblasts from oxidative-stress mediated apoptosis. Cultured lymphoblasts from INCL patients were chosen because PPT1 is expressed in all tissues and PPT 1-deficiency in cultured lymphoblasts and fibroblasts from INCL patients show virtually identical pathological changes (accumulation of ceroid, GRODs and increased apoptosis) as are found in postmortem neuronal tissues from such patients. […] Apoptosis of the H2O2-treated cells was then quantitated by florescence activated cell sorting (FACS) analysis.

PPT1-KO mice = experiment: TUNEL assay of cortical tissue sections of PPT1-KO mice; format: in vivo, mouse; settings: cortical tissue vs untreated PPT1-KO mice (FIG. 16)
Experimental: It has been reported that postmortem brain tissues from INCL patients as well as those from PPT1-KO mice manifest high levels of oxidative stress, which induces neuronal apoptosis contributing to neuropathology. […] Accordingly, a terminal deoxynucleotidyl transferase dUTP nick end labeling (TUNEL) assay was performed using cortical tissue sections from wild-type, untreated PPT1-KO and NtBuHA-treated PPT1-KO mice to determine the level of apoptosis. […] Since elevated levels of apoptosis in the brain of PPT1-KO mice and INCL patients mediate progressive decline in number of cortical neurons, the inventors also sought to further confirm whether decreased apoptosis in NtBuHA-treated PPT1-KO mice prevented neuronal loss. Accordingly, an immunohistochemical analyses of cortical tissue sections from wild-type, untreated-PPT1-KO, and NtBuHA-treated PPT1-KO mice was performed using antibodies against a neuronal marker, NeuN. […] Quantitative analysis of the NeuN-positive cells in brain tissues from wild-type, untreated and NtBuHA-treated PPT1-KO mice (FIG. 18D) confirmed the visual assessment.

INCL fibroblasts [3] = experiment: MTT viability of cultured INCL fibroblasts; format: cell-based, human; settings: 48 hours of treatment; viability as percent of untreated control (FIG. 4A-C)
Experimental: Ten out of the twelve HA-derivative compounds listed in Table 1 were tested to determine whether they adversely affected the viability of cultured cells from INCL patients. […] Briefly, following treatment with HA-derivatives INCL cells were incubated with Thiazolyl Blue Tetrazolium […] for 4 hours at 37° C. Formazan crystals thus formed were dissolved in acidified isopropanol and absorption was measured at 570 nm. Viability was expressed as percent of untreated control.
Briefly, normal fibroblasts (GM 00498) were obtained from the Coriell Institute of Medical Research, USA. PPT1-deficient INCL fibroblasts were isolated from skin biopsy samples of INCL patients admitted to an ongoing clinical protocol (#01-CH-0086) approved by the Institutional Review Board (IRB) of the National Institute of Child Health and Human Development (NICHD) at the National Institute of Health (NIH). […] The fibroblasts were cultured in the presence or absence of varying concentrations of each of the HA-derivatives for 48 hours, after which the viability of the cells was determined using the MTT-Cell Viability Assay by T. Mossman, (Rapid colorimetric assay for cellular growth and survival. J. Immunol. Method. 65 (1983) 55-63).

INCL lymphoblasts [4] = experiment: Depletion of [35S]cysteine-labeled lipid thioesters / hydrolysis of S-acylated proteins in PPT1-deficient lymphoblasts; format: cell-based, human; settings: lymphoblasts of nine NCL patients; 48 hours vs untreated cells (FIG. 8)
Experimental: as §1
The ability of NtBuHA to deplete [^35S]cysteine-thioester containing compounds was tested using [^35S]cysteine-labeled, immortalized lymphoblasts. […]

INCL fibroblasts [5] = experiment: TEM analysis of GRODs in cultured INCL fibroblasts; format: cell-based, human; settings: 250 μM for 3 weeks vs untreated fibroblasts (FIG. 10)
Experimental: Transmission electron microsocopy (TEM) of INCL lymphoblasts and fibroblasts was performed. Briefly, cells were first treated with 250 μM NtBuHA for 3 weeks. Medium was replaced with fresh 250 μM of NtBuHA at every 72 hours. After treatment, cells were fixed with 2.5% glutaraldehyde in sodium phosphate buffer, washed three times with Millonig's phosphate buffer and stained with 2.5% uranyl acetate. Ultra-thin sections were then prepared using AO Reichert Ultracut ultramicrotome, stained with lead citrate and examined by using Zeiss EM10 CA.
Accordingly, untreated- and NtBuHA-treated cultured INCL lymphoblasts were analyzed using TEM.

CC(C)(C)NO [NtBuHA, N-(tert-Butyl)hydroxylamine]
intensity of [35S]cysteine-labeled lipid extractable thioester compounds (INCL fibroblasts [1]): significantly reduced intensity
H2O2-induced apoptosis, pre- and co-treated cells (INCL lymphoblasts [2]; then 500 μM H2O2 3 hours in presence of NtBuHA (FIG. 15)): no alteration in apoptosis above the base level
H2O2-induced apoptosis, pretreated cells (INCL lymphoblasts [2]; then 500 μM H2O2 3 hours without NtBuHA (FIG. 15)): failed to induce apoptosis above the base level
TUNEL-positive apoptotic cells (PPT1-KO mice): appreciably lower levels of TUNEL-positive apoptotic cells
toxicity / viability of INCL cells (MTT) (INCL fibroblasts [3]): non-toxic
intensity of [35S]cysteine-labeled lipid bands (INCL lymphoblasts [4]): clear reduction in the intensity
GRODs in INCL fibroblasts (INCL fibroblasts [5]): significantly lower number of GRODs with markedly reduced size and density
